The record followed here is ChEMBL document CHEMBL2434883, “Novel heterocyclic-fused pyrimidine derivatives: synthesis, molecular modeling and pharmacological screening” (Eur J Med Chem, 2013).

A word on the inhibition: it is the share of the control response that was lost under treatment. High values mean strong suppression, low ones little suppression. What is called IC50 is the midpoint of a concentration-inhibition curve.

≈ marks a conversion by molar mass, not a printed value.

The species named for one test is Homo sapiens. As to the kind of experiment: Inhibition of VEGFR (unknown origin) using [33P]-ATP as substrate at 10 uM after 30 mins by scintillation counting analysis relative to control.
The test system of another test is MCF7. Description: Cytotoxicity against human MCF7 cells after 48 hrs by SRB assay. The test is classed as functional, cell-based. The following applies: MCF7, 48 h. (In general: Sulforhodamine B stains cellular protein and so reports cell mass.)
Test [1] deals with Proto-oncogene tyrosine-protein kinase Src (Homo sapiens) (UniProt P12931). As to the kind of experiment: Inhibition of c-Src (unknown origin) using [33P]-ATP as substrate at 10 uM after 30 mins by scintillation counting analysis relative to control.
Chain of Proto-oncogene tyrosine-protein kinase Src (Homo sapiens) (P12931 2-536 limits assumed): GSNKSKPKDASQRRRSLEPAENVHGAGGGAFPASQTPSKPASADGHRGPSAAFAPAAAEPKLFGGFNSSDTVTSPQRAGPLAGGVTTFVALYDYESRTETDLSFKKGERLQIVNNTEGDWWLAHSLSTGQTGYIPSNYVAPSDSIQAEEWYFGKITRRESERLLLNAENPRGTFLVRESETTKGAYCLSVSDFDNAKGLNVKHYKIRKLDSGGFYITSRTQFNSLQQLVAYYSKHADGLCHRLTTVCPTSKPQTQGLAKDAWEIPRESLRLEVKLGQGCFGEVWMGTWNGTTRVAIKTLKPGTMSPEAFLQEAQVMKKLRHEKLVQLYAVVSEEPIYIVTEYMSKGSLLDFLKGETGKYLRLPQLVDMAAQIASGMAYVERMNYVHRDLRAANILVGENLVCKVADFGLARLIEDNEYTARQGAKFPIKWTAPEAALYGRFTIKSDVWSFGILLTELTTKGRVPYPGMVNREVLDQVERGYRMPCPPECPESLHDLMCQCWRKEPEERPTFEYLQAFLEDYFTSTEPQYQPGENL

Regarding `O=C1N(c2ccccc2)c2nc[nH]c(=O)c2C2CCCCCN12` (stereo not given), the inhibition came out at 3% in the test listed under Homo sapiens and 81% in test [1]. This compound showed a 50% inhibitory concentration (IC50) in the test on MCF7 of 11.2 µg/mL (≈ 36.1 µM). For `N#CC1=C(N2C(=O)C(=O)N(c3ccccc3)C2=O)N(c2ccccc2)C(=O)N2CCCC12` (stereo not given), in that order: 25%, 45% and 10.8 µg/mL (≈ 25.3 µM). For the compound `O=C1N(c2ccccc2)c2[nH]c(=S)sc(=O)c2C2CCCCCN12` (stereo not given), the midpoint of inhibition in the test with MCF7, the IC50, lay at 14 µg/mL (≈ 38.9 µM). Still for that read-out and setting: to `Cc1ccc(NC(=O)CNC2=C(C#N)C3CCCN3C(=O)N2c2ccccc2)cc1` (stereo not given) belongs 21.6 µg/mL (≈ 53.8 µM); to `O=C1N(c2ccccc2)c2[nH]c(=S)sc(=O)c2C2CCCN12` (stereo not given), 17 µg/mL (≈ 51.3 µM); to `N#CC1=C(NC(=S)Nc2ccccc2)N(c2ccccc2)C(=O)N2CCCC12` (stereo not given), 16.6 µg/mL (≈ 42.6 µM). Still for that read-out and setting: to `Nc1nc(=S)[nH]c2c1C1CCCCCN1C(=O)N2c1ccccc1` (stereo not given) belongs 10.8 µg/mL (≈ 31.6 µM); to `O=c1sc(=S)[nH]c2c1C1CCCN1C(=S)N2c1ccccc1` (stereo not given), 18.8 µg/mL (≈ 54.1 µM). For `N#CCC(=O)NC1=C(C#N)C2CCCN2C(=O)N1c1ccccc1` (stereo not given), the inhibition (in the test listed under Homo sapiens; in test [1]) was 0% in each case. The same compound came in with an IC50 in the test with MCF7 of 12.8 µg/mL (≈ 39.8 µM).

Take `N#CC1=C(NC(=O)Nc2ccccc2)N(c2ccccc2)C(=S)N2CCCC12` (stereo not given): in the test with MCF7, the IC50 is 14.2 µg/mL (≈ 36.5 µM).

With `N#CC1=C(N2C(=O)CN(c3ccccc3)C2=O)N(c2ccccc2)C(=O)N2CCCC12` (stereo not given), in the test on MCF7, half-maximal inhibition (IC50) required 18.6 µg/mL (≈ 45 µM).

As to `N=c1c2c([nH]c(=O)n1-c1ccccc1)N(c1ccccc1)C(=O)N1CCCC21` (stereo not given), the inhibition in the test filed under Homo sapiens was found to be 11%; in test [1] it was 0%. The same compound yielded a 50% inhibitory concentration (IC50) with MCF7 of 9.6 µg/mL (≈ 25.7 µM).

In the case of `O=C1N(c2ccccc2)c2[nH]c(=S)nc(/N=C/c3ccc(Cl)cc3)c2C2CCCCCN12` (stereo not given), in the test with MCF7, the IC50 amounted to 10.6 µg/mL (≈ 22.8 µM).

As for `Nc1nc(=S)[nH]c2c1C1CCCN1C(=S)N2c1ccccc1` (stereo not given), the midpoint of inhibition with MCF7, the IC50, lay at 22.8 µg/mL (≈ 69.2 µM). On the same count and under the same terms, to `N#CC1=C(NC(=S)Nc2ccccc2)NC(=S)N2CCCC12` (stereo not given) belongs 20.8 µg/mL (≈ 63.1 µM); to `O=C1N(c2ccccc2)c2[nH]c(=S)nc(/N=C/c3ccc(Cl)cc3)c2C2CCCN12` (stereo not given), 12.4 µg/mL (≈ 28.4 µM); to `Cc1ccc(NC(=O)CNC2=C(C#N)C3CCCN3C(=S)N2c2ccccc2)cc1` (stereo not given), 12.8 µg/mL (≈ 30.7 µM). The same measure, in the same setting: to `N#CC1=C(NC(=O)Nc2ccccc2)N(c2ccccc2)C(=O)N2CCCC12` (stereo not given) belongs 19.8 µg/mL (≈ 53 µM); to `O=c1[nH]cnc2c1C1CCCN1C(=S)N2c1ccccc1` (stereo not given), 20 µg/mL (≈ 67 µM); to `O=C1N(c2ccccc2)c2nc[nH]c(=O)c2C2CCCN12` (stereo not given), 14.8 µg/mL (≈ 52.4 µM).

For the compound `Nc1nc(=S)[nH]c2c1C1CCCN1C(=O)N2c1ccccc1` (stereo not given), the half-inhibitory concentration (IC50) in the test with MCF7 is 13.6 µg/mL (≈ 43.4 µM). Take `NNc1ncnc2c1C1CCCN1C(=O)N2c1ccccc1` (stereo not given): in the test on MCF7, the IC50 amounted to 11 µg/mL (≈ 37.1 µM).
